Experiments:
[1] = system: phospho-STAT1^SER727 in SW620 tumor xenografts; experiment: Tumor phospho-STAT1 SER727 relative to total STAT1, electrochemiluminescent ELISA; type: in vivo, mice; settings: 6 h after final dose
[2] = system: SW620 human solid tumor xenografts; experiment: Antitumor activity in SW620 tumor xenografts (parent and knockout clones); settings: 42 mg/kg p.o. qd 5/7 days, 14-20 days
Protocol: Three separate clones were run for each knockdown condition (n = 7 control or treated mice per group for the parent and each individual clone). Tumors and plasma were collected 6 h after the final dose. For all graphs an ordinary one-way ANOVA with Dunnett’s correction was run to determine significance. […] Each point represents data from a knockout clone.
The establishment, treatment, pharmacokinetic analyses and processing of tumor samples from solid tumor xenografts was performed as described previously previously. , All procedures were performed in accordance with published NCRI guidelines and UK Government Home Office regulations.
The establishment, treatment, pharmacokinetic analysis and processing of tissue
samples from human tumour xenografts was performed as described previously.3,4 All
procedures were performed in accordance with published guidelines and UK
Government Home Office regulations.5 Female athymic nude mice Crl:NU-Foxn1nu
(Charles River Laboratories, US) were acclimatized for 1 week prior to use. Five million
SW620 human colorectal carcinoma cells were injected s.c. in the right flanks of 6–8
weeks old female NCr athymic mice under isofluorothane anesthesia. Therapy was
initiated when established tumours reached a mean volume of 60 mm (day 7). Animals
were randomly assigned into cohorts. Control mice received vehicle (0.5% Methocel,
at 42 mg/kg p.o qd for 5/7 days with a 2-day break after 1 week's dosing.
was prepared 24 h prior to administration to mice by weighing into a glass 30 mL
universal tube, and Methocel solution (0.5% Methocel, 0.25% Tween 20 in sterile
phosphate buffered saline) added to provide a final concentration of 3 mg/mL.
preparation was agitated at room temperature by magnetic stirrer to bring it into a fine
suspension before use. Animals were dosed orally by gavage every 24 h at 0.1 mL
per 10 g body weight. Tumours were measured three times weekly by Vernier calipers and body weights recorded. At the end of the study, day 3 for pharmacodynamic
biomarker analysis and day 14 for anti-tumour therapy experiments, animals were
culled 6 h after the final dose. Heparinized blood was collected by cardiac puncture,
spun, and the plasma snap frozen in liquid nitrogen for analysis of compound
exposure. Tumours were excised, weighed and samples snap frozen for compound

[3] = system: MED14 phosphorylation in SW620 cells; experiment: CDK-substrate motif immunoprecipitation and MED14 immunoblot, SW620; type: cell-based, human; settings: parent SW620, 350 nM, 6 h
Excerpt: 3 Mediator kinase knockout alters STAT1^SER727phosphorylation and promoter activity in SW620 human colon cancer cells. (A) Capillary immunoassay of Mediator kinase module expression and pSTAT1^SER727 biomarker in multiple independent knockout clones. GAPDH was included as a loading control. […] Controls included IgG alone for background, DMEM for untreated cells, and DMSO as a vehicle control. MED14 was detected as a doublet pair of bands by immunoblotting of cell lysates (middle gel panel). […] The lower panel includes vinculin as a loading control. (C) Promoter reporter results from CDK8 knockout clone 1 relative to parent SW620 cells. Data represent mean ± s.e.m (n = 3). The black horizontal line indicates unchanged reporter activity, while the horizontal red line highlights reporters with altered activity ±1.5-fold. […]
Cell monolayers were washed with PBS twice and lysed using a modified RIPA buffer, mRIPA (50 mM TRIS-HCl pH 7.4, 1% NP-40 substitute, 0.5% NaDOC, 150 mM NaCl, 1 mM EDTA, 0.02% SDS and 1:100 dilution of proteinase and phosphatase inhibitor cocktail, (#5872, Cell Signaling Technology) with overnight freezing at -80 °C and sonication of the cell pellet. Lysates were clarified by centrifugation and supernatants collected and protein concentration determined by a bicinchoninic acid (BCA) assay. […]

[4] = system: SW620 cells; experiment: Promoter reporter panel (transient luciferase constructs), SW620; type: cell-based, human; settings: parent SW620, 350 nM, 6 h
Protocol: Transcription factor activity was assayed in cell lines using 45 different plasmid reporter constructs encoding firefly luciferase under the control of a basal promoter element downstream of specific transcriptional response elements (Qiagen, Germany; Supporting Table S1). Firefly luciferase under the control of basal promoter element alone was used to establish the baseline signal and cotransfection of a construct expressing renilla luciferase from a CMV-promoter was used as a transfection control. Cells were reverse-transfected with reporter plasmids, compounds were added 42 h post transfection and reporter activity quantified following 6 h continuous exposure. […]
multichannel pipette. Where indicated, spheroids were treated at day 4. At days 3, 6 and 8 following compound addition, 50% medium replenishment was performed. Cell-titre Glo analyses were carried out at day 14 for luminescence measurement on a Synergy 2 SL Luminescence microplate reader (BioTek, UK). Values are means ± […]
Single and double knockout clones of human SW620 colon cancer cells lacking CDK8, CDK19 or both kinases were generated using a CRISPR/Cas9 knockout strategy.
Constructs for knockout carried a Cas9 gene, a fluorescent protein gene (GFP for CDK8 and RFP for CDK19) and sgRNAs to human CDK8 […]
Single and double CDK8 and CDK19 knockout clones were generated by transiently transfecting SW620 cells using Lipofectamine 3000 (Thermo Fisher Scientific, UK).
Cells were harvested 72 hours post-transfection and the top 1% GFP, RFP or GFP/RFP positive cells were sorted by FACS into 96 well plates at one cell/well.
Knockout clones were identified by a capillary immunoassay for CDK8 or CDK19 […]
kinase mutant (CDK8D173A)2 were established by transfection of CDK8 CRISPR knockout clone 1 with a pCMV6-CDK8-cMyc-FLAG construct.
Transcription factor promoter reporter assays were carried out to define signalling pathways and biological processes modulated by CDK8/19 ligands. […]
and body weights recorded.

[5] = 14-20 days, 42 mg/kg p.o qd 5/7 days

SMILES	tumor phospho-STAT1 SER727, CDK8/19 clones [1, 5]	tumor phospho-STAT1 SER727, parent, CDK19 and CDK8 clones [1, 5]	tumor phospho-STAT1 SER727 levels, CDK8 and CDK8/19 knockouts ([1]; 3 days, 42 mg/kg p.o. qd, except CDK8-KO-cl2 (p < 0.05))	tumor phospho-STAT1 SER727 levels, parent and CDK19 clones ([1]; 3 days, 42 mg/kg p.o. qd, p < 0.0001)	antitumor activity, treated/control (T/C) ([2]; CDK8/19 double knockout SW620 xenografts, p < 0.005) [%]	antitumor activity, treated/control (T/C) ([2]; CDK8 knockout SW620 xenografts, ± s.e.m.) [%]	antitumor activity, treated/control (T/C) ([2]; CDK19 knockout SW620 xenografts) [%]	antitumor activity, treated/control (T/C) ([2]; parental SW620 xenografts) [%]	MED14 upper band (immunoblot of cell lysates) [3]	p53 reporter activity [4]	AARE promoter reporter activity relative to vehicle control ([4]; mean ± s.e.m)	AP1 promoter reporter activity relative to vehicle control ([4]; mean ± s.e.m)
Cn1ncc2cc(-c3cnc(N)c(Cl)c3N3CCC4(CCNC4=O)CC3)ccc21 [CCT251921]	not	significantly reduced	no significant change	significantly reduced	113 ± 10	59 ± 6	66 ± 3	63	–	–	–	–
Cn1cc(-c2ccc(-c3cncc(Cl)c3N3CCC4(CCNC4=O)CC3)cc2)cn1 [CCT251545]	–	–	–	–	–	–	–	–	reduced by active compound treatment	significant decrease	0.82 ± 0.06	0.78 ± 0.04
